From patent US9552457B2, “Reprogramming effector protein interactions to correct epigenetic defects in cancer” (BRITISH COLUMBIA CANCER AGENCY BRANCH, priority 2012, dated 2017)
Like-named read-outs stand apart in the source and are kept apart here.

Tests used:
[1] = tested on: DoHH-2, OCI-LY3, WSU-DLCL2 (all wild-type for MLL2); test: alamarBlue cell proliferation assay, MLL2 wild-type cell lines; assay type: cell-based; conditions: in words
Procedure: Diffuse large B-cell lymphoma cell lines were maintained in RPMI medium 1640 (Life Technologies) supplemented with 10% (v/v) fetal bovine serum (Life Technologies) and 1% penicillin/streptomycin (Life Technologies) in a 37° C. incubator with 5% CO2, humidified atmosphere. Cell line DOHH2 was obtained from DSMZ. Pfeiffer was obtained from ATCC. SU-DHL-9 was obtained from Martin Dyer (University of Leicester, UK).
(§1) Compounds were initially solubilized in DMSO at a concentration of 10 mM. This compound solution was further diluted 1:100 in RPMI medium 1640 to a final concentration of 100 μM. Ninety microliters of cells maintained at a concentration of 4×10^5 cells/mL were dispensed into wells of a MICROTEST™ 96-well Assay Plate, Optilux™ (BD). Ten microliters of the 100 μM compound solution were then added to the cells resulting in a final compound concentration of 10 μM. Each compound was tested in triplicate. Ten microliters of a 1:100 DMSO to RPMI medium 1640 solution were also added to 90 μL of cells as a carrier control. Furthermore, each plate included wells containing only RPMI medium 1640 to serve as a background noise control as well as cells that were completely untreated. Compounds were incubated with the cells in a 37° C. incubator with 5% CO2, humidified atmosphere for 48 hours before being subjected to the alamarBlue® cell proliferation assay (Life Technologies). Raw fluorescent units were corrected for background noise and normalized to the carrier-treated control.
The activity of Compound 3 in vitro was investigated further using the cell lines DoHH-2, OCI-LY3, WSU-DLCL2 (all wild-type for MLL2) and SU-DHL9. In addition, the dose response for Compound 2 was investigated in cell lines mutant for MLL2 or both MLL2 and EZH2. The dose response for Compound 3 was investigated in a MLL2 mutant cell line. Methods were as described for Example 3. Cell-line WSU-DLCL2 was obtained from DSMZ and OCI-Ly lines 3 was obtained from Louis Staudt (US National Institutes of Health).

[2] = tested on: SU-DHL-9 (MLL2 homozygous indel mutant) cell line; test: alamarBlue cell proliferation assay, SU-DHL-9 cell line; assay type: cell-based, human; conditions: for activity at 10 µM: Homo sapiens, read-out: % Cell Proliferation; for activity as worded in SAR analysis (selective toxicity against SU-DHL-9): in words, restates Tables 3 and 4
Procedure: Cell line DOHH2 was obtained from DSMZ. Pfeiffer was obtained from ATCC. SU-DHL-9 was obtained from Martin Dyer (University of Leicester, UK).
as §1, with “This compound solution was further diluted 1:100 in RPMI medium 1640 to a final concentration of 100 μM.” left out, “Ten microliters of a 1:100 DMSO to RPMI medium 1640 solution were also added to 90 μL of cells as a carrier control. Furthermore, each plate included wells containing only RPMI medium 1640 to serve as a background noise control as well as cells that were completely untreated.” left out

[3] = tested on: WSU-DLCL2 Cells (EZH2 mutation Y641F); test: Cell viability of lymphoma cell lines, WSU-DLCL2; assay type: cell-based, human; design: Effect on Cell Viability (% survival) WSU-DLCL2 Cells: concentration or dose not given beside the values; conditions: Table 5
Procedure: (§2) Compound 50 was tested for its effect on the viability of three lymphoma cell lines in vitro using standard methods. The cell lines tested were: DoHH-2 (wildtype for EZH2, MEF2B and MLL2); WSU-DLCL2 (EZH2 mutation Y641F (wildtype for MEF2B and MLL2)) and DB (EZH2 mutation Y641N, the MEF2B mutation D83V and three mutations in MLL2 (two of which lead to a truncated protein after residue Q2736 and the third allele has a 1 base pair deletion at residue P480)).
(§3) Compound 51 (NSC2540) was tested for its effect on the viability of four lymphoma cell lines in vitro using standard methods. The cell lines tested were DoHH-2, WSU-DLCL2, DB and SU-DHL-9 (EZH2 wildtype, MEF2B wildtype, MLL2 indel).

[4] = tested on: DoHH2 Cells (wildtype for EZH2, MEF2B and MLL2); test: Cell viability of lymphoma cell lines, DoHH-2; assay type: cell-based; design: Effect on Cell Viability (% survival) DoHH2 Cells: concentration or dose not given beside the values; conditions: Table 5
Procedure: as §2, §3

[5] = Table 3, scaffold A, 10 μM, 48 hours, normalized to carrier-treated control, SU-DHL-9
[6] = Table 4, scaffold B, 10 μM, 48 hours, normalized to carrier-treated control, SU-DHL-9

Structure (SMILES) | Effect on Cell Viability (% survival) WSU-DLCL2 Cells [3] [%] | Effect on Cell Viability (% survival) DoHH2 Cells [4] [%] | further results
C=C(CN(C)C)C(=O)c1cc(C)ccc1C [Compound 1, 2-dimethylaminomethyl-1-(2,5-dimethyl-phenyl)-propenone] |  |  | activity against wild-type cells [1]: inactive; activity at 10 µM [2, 5]: < 10%; activity against the MLL2 double LoF mutant cell line ([2]; SU-DHL-9, in words): active; activity as worded in SAR analysis (selective toxicity against SU-DHL-9) [2]: active
C=CS(=O)(=O)c1ccc2ccccc2c1 [Compound 6, 2-ethenylsulfonylnaphthalene] |  |  | activity at 10 µM [2, 5]: 69%; activity as worded in SAR analysis (selective toxicity against SU-DHL-9) [2]: only moderate activity
C=C(CNC(C)(C)C)C(=O)c1ccccc1 [Compound 8, 2-[(tert-butylamino)methyl]-1-phenylprop-2-en-1-one] |  |  | activity at 10 µM [2, 5]: 92%
O=C1c2ccccc2-c2c(NC(=O)C(Cl)Cl)cccc21 [Compound 9, 2,2-dichloro-N-(9-oxofluoren-4-yl)acetamide] |  |  | activity at 10 µM [2, 6]: 117%
C=C(CN1CCOCC1)C(=O)c1ccccc1 [Compound 11, 2-(morpholin-4-ylmethyl)-1-phenylprop-2-en-1-one] |  |  | activity at 10 µM [2, 5]: 26%
CC(=O)C(=O)c1ccccc1 [Compound 12] |  |  | activity at 10 µM ([2]; 48 h): 105%
C=CC(=O)c1ccccc1 [Compound 13] |  |  | activity at 10 µM [2, 5]: 137%
C=C(CN(C)C)C(=O)c1ccc(C(=O)C(=C)CN(C)C)cc1 [Compound 14] |  |  | activity at 10 µM [2, 5]: 93%; activity as worded in SAR analysis (selective toxicity against SU-DHL-9) [2]: lacks activity
C=C(CN(C)C)C(=O)c1ccc(C)cc1C [Compound 15] |  |  | activity at 10 µM [2, 5]: 61%
C=C(CN(C)C)C(=O)c1ccccc1C [Compound 16] |  |  | activity at 10 µM [2, 5]: 107%; activity as worded in SAR analysis (selective toxicity against SU-DHL-9) [2]: inactive or minimally active
COc1ccccc1C(=O)C(=O)CN(C)C [Compound 17] |  |  | activity at 10 µM [2, 5]: 89%; activity as worded in SAR analysis (selective toxicity against SU-DHL-9) [2]: inactive or minimally active
C=C(CN(C)C)C(=O)c1ccccc1 [Compound 19] |  |  | activity at 10 µM [2, 5]: 77%; activity as worded in SAR analysis (selective toxicity against SU-DHL-9) [2]: inactive or minimally active
C=C(CN(C)C)C(=O)c1ccc(OC)cc1 [Compound 20] |  |  | activity at 10 µM [2, 5]: 83%
C=CCCC(=C)c1ccccc1 [Compound 21] |  |  | activity at 10 µM [2, 5]: 105%
O=C1c2ccccc2-c2cccc(NC(=O)C(Cl)Cl)c21 [Compound 22] |  |  | activity at 10 µM [2, 6]: 86%; activity as worded in SAR analysis (selective toxicity against SU-DHL-9) [2]: partially active
CC(=O)NC(CC(=O)Nc1cccc2c1C(=O)c1ccccc1-2)C(C)=O (stereo not drawn) [Compound 23] |  |  | activity at 10 µM [2, 6]: 114%; activity as worded in SAR analysis (selective toxicity against SU-DHL-9) [2]: inactive
CC(=O)Nc1cccc2c1C(=O)c1ccccc1C2=O [Compound 24] |  |  | activity at 10 µM [2, 6]: 107%; activity as worded in SAR analysis (selective toxicity against SU-DHL-9) [2]: inactive
OC(CBr)c1cc(-c2ccccc2)nc2ccccc12 (stereo not drawn) [Compound 25] | 60 | 100 | 
CC(O)c1cc(-c2ccccc2)nc2ccccc12 (stereo not drawn) [Compound 26] | 90 | 100 | 
O=C(CBr)c1cc(-c2ccc(Cl)cc2)nc2ccccc12 [Compound 27] | 40 | 90 | 
CC(=O)c1cc(-c2ccc(Cl)cc2)nc2ccccc12 [Compound 28] | 100 | 100 | 

Structure (SMILES) | Effect on Cell Viability (% survival) WSU-DLCL2 Cells [3] [%] | Effect on Cell Viability (% survival) DoHH2 Cells [4] [%] | further results
CC(O)c1cc(-c2ccc(Cl)cc2)nc2ccccc12 (stereo not drawn) [Compound 29] | 80 | 100 | 
O=C(CBr)c1cc(-c2ccc(Cl)cc2)nc2cc(Cl)ccc12 [Compound 30] | 40 | 60 | 
OC(CBr)c1cc(-c2ccc(Cl)cc2)nc2cc(Cl)ccc12 (stereo not drawn) [Compound 31] | 100 | 100 | 
CC(=O)c1cc(-c2ccc(Cl)c(Cl)c2)nc2c(Cl)cc(Cl)cc12 [Compound 32] | 90 | 100 | 
O=C(c1cc(-c2ccc(Cl)c(Cl)c2)nc2c(Cl)cc(Cl)cc12)C1NN1 [Compound 33] | 100 | 100 | 
OC(CBr)c1cc(-c2ccccc2)nc2c(Cl)cc(Cl)cc12 (stereo not drawn) [Compound 34] | 90 | 100 | 
O=C(CBr)c1cc(-c2ccc(Cl)cc2)nc2c(-c3ccccc3)cccc12 [Compound 35] | 17 | 20 | 
OC(CBr)c1cc(-c2ccc(Cl)cc2)nc2c(-c3ccccc3)cccc12 (stereo not drawn) [Compound 36] | 90 | 100 | 
O=C(Cl)c1cc(-c2ccc(Cl)cc2)nc2c(-c3ccccc3)cccc12 [Compound 37] | 80 | 100 | 
OC(c1cc(-c2ccc(Cl)cc2)nc2cc(Cl)ccc12)N1CCCCC1 (stereo not drawn) [Compound 38] | 80 | 100 | 
OC(c1cc(-c2ccc(Cl)cc2Cl)nc2cc(Cl)ccc12)C1CCCCN1 (stereo not drawn) [Compound 39] | 20 | 60 | 
OC(c1cc(-c2ccc(Cl)cc2)nc2ccccc12)C1CCCCN1 (stereo not drawn) [Compound 40] | 50 | 100 | 
OC(c1cc(-c2cccc(Cl)c2)nc2ccccc12)C1CCCCN1 (stereo not drawn) [Compound 41] | 10 | 17 | 
OC(c1cc(-c2ccccc2)nc2c(Cl)cc(Cl)cc12)C1CCCCN1 (stereo not drawn) [Compound 42] | 10 | 30 | 
OC(c1cc(-c2ccccc2)nc2cc(Cl)ccc12)C1CCCCN1 (stereo not drawn) [Compound 43] | 10 | 40 | 
OC(c1cc(-c2ccccc2)nc2c1ccc1ccccc12)C1CCCCN1 (stereo not drawn) [Compound 44] | 10 | 10 | 
CCN(CC)CC(O)c1cc(-c2ccc(Cl)cc2)nc2cc(Cl)ccc12 (stereo not drawn) [Compound 45] | 80 | 100 | 
CCCN(CCC)CC(O)c1cc(-c2ccc(Cl)cc2)nc2c(C)c(Cl)ccc12 (stereo not drawn) [Compound 46] | 90 | 100 | 
Cc1c(Cl)ccc2c(C(O)CN(C)C)cc(-c3ccc(Cl)cc3)nc12 (stereo not drawn) [Compound 47] | 100 | 100 | 
Cc1c(Cl)ccc2c(C(=O)NN)cc(-c3ccc(Cl)cc3)nc12 [Compound 48] | 40 | 90 | 
Cc1c(Cl)ccc2c(C(=O)CNCc3ccccc3)cc(-c3ccc(Cl)cc3)nc12 [Compound 49] | 50 | 70 | 
